{
  "source": "patent US20050186135A1",
  "about": "“Compositions, methods, apparatuses, and systems for singlet oxygen delivery” (priority 2001, published 2005)",
  "key": {"atherosclerosis": {"system": "atherosclerosis", "conditions": "in vivo; cited from earlier work"}, "tumor growth": {"system": "tumor growth", "conditions": "mice, Altermatt et al. 1990; cited from earlier work"}, "[1]": {"conditions": "in vivo; cited from earlier work"}, "mitosis": {"system": "mitosis", "conditions": "Lamprecht et al. 1990; cited from earlier work"}, "[2]": {"conditions": "Ameta et al. 1990; Parker and Stanbro 1984; cited from earlier work"}, "influenzal pneumonia": {"system": "influenzal pneumonia", "conditions": "intravenous hydrogen peroxide solution, Oliver 1920; cited from earlier work"}, "[3]": {"conditions": "stated as believed; cited from earlier work"}, "a single cell": {"system": "a single cell", "conditions": "Oseroff et al. 1986; cited from earlier work"}, "skin keratosis lesion": {"system": "skin keratosis lesion", "experiment": "Treatment of Keratosis I: intralesional injection", "assay_type": "in vivo, human", "conditions": "0.4 ml of 6% sodium hypochlorite alone into center of ~1.25 cm lesion", "procedure": "A skin keratosis lesion measuring approximately 1.25 cm in diameter was chosen as a target for treatment. The lesion was located on the left temple of a person.\nUsing a 30-gauge hypodermic needle, 0.4 ml of a 6% solution of sodium hypochlorite was injected into the center of the lesion. […] See FIG. 20 for a photo of the area immediately following the injection.\nImmediately after the first injection, using a 30-gauge hypodermic needle, 0.4 ml of a 3% solution of hydrogen peroxide was injected into the center of the lesion. […] See FIG. 21 for a photo of the area immediately following the injection."}, "[4]": {"system": "coronary artery blocked with sclerotic plaque", "experiment": "Treatment of Sclerotic Plaque I: cadaver artery section in test tube", "parameters": "species or system human", "conditions": "2 ml of 6% sodium hypochlorite, shaken one minute", "from_the_text": "A coronary artery blocked with sclerotic plaque, taken from a human cadaver, was chosen as a target site for treatment. The coronary artery was grayish pink in color and suspended in a formaldehyde preservative. It was surrounded with fatty tissue of an irregular shape, which measured approximately 1 cm in its widest dimension. It measured 0.6 cm in length and 0.5 cm diameter. The lumen of the vessel was completed occluded with sclerotic plaque.\nThe cross section of coronary artery was placed in a test tube containing 2 ml of 6% of sodium hypochlorite and was shaken for one minute. […] This preparation was then again shaken."}, "[5]": {"system": "coronary artery blocked with sclerotic plaque", "experiment": "Treatment of Sclerotic Plaque II: hypochlorite alone, then peroxide added", "parameters": "species or system human", "conditions": "2 ml of 6% sodium hypochlorite alone", "procedure": "The following tests were performed to corroborate that the singlet oxygen produced by the hydrogen peroxide and the sodium hypochlorite had actually cleared and opened the human coronary artery blocked with the sclerotic plaque.\nLike Example 3, a coronary artery blocked with sclerotic plaque, taken from a human cadaver, was prepared as a target site for treatment. The coronary artery was grayish pink in color and suspended in a formaldehyde preservative. It was surrounded with fatty tissue of an irregular shape, which measured 1.1 cm in its widest dimension. It measured approximately 0.6 cm in length and 0.5 cm in diameter. The lumen of the vessel was completed occluded with sclerotic plaque.\nThe human coronary artery with the plaque was first treated with 2 ml of 6% solution of sodium hypochlorite alone.\nImmediately after the treatment with the sodium hypochlorite, 2 ml of 3% solution of hydrogen peroxide was added to the 2 ml of 6% solution of sodium hypochlorite containing the human coronary artery with the plaque."}, "[6]": {"conditions": "gives peroxyl and/or alkoxyl radicals; Noguchi et al. 2002; cited from earlier work"}},
  "data": [
    {"smiles": "CC(=O)[O-].CC(=O)[O-].CCc1c(CC)c2cc3nc(cnc4cc(OCCOCCOCCOC)c(OCCOCCOCCOC)cc4ncc4nc(cc1[n-]2)C(CCCO)=C4C)C(C)=C3CCCO.O.[Lu+3]", "note": "[Antrin, motexafin lutetium]", "values": [
      {"measurement": "feasibility and tolerability of photoangioplasty", "setting": "atherosclerosis", "result": "feasible and well tolerated"}
    ]},
    {"smiles": "[2H]O[2H]", "note": "[D2O, deuterium oxide]", "values": [
      {"measurement": "effect on rate of tumor growth", "setting": "tumor growth", "result": "can depress the rate of tumor growth in mice"},
      {"measurement": "safety in infants", "setting": "[1]", "result": "safe"},
      {"measurement": "toxicity in mammals", "setting": "[1]", "result": "low toxicity"},
      {"measurement": "effect on mitosis", "setting": "mitosis", "result": "anti-mitotic effect optimized between anaphase and metaphase"},
      {"measurement": "effect on lifetime of singlet oxygen", "setting": "[2]", "result": "can increase the lifetime of singlet oxygen"}
    ]},
    {"smiles": "OO", "note": "[hydrogen peroxide]", "values": [
      {"measurement": "treatment success", "setting": "influenzal pneumonia", "result": "high rate of success"}
    ]},
    {"smiles": "O=O", "note": "[singlet oxygen]", "values": [
      {"measurement": "lifetime of singlet oxygen", "setting": "[3]", "result": "about 50 nanoseconds"},
      {"measurement": "molecules of singlet oxygen necessary to kill a single cell", "setting": "a single cell", "result": "10^10 molecules"}
    ]},
    {"smiles": "OCl", "note": "[sodium hypochlorite]", "values": [
      {"measurement": "bleeding at injection site", "setting": "skin keratosis lesion", "result": "minor bleeding at the lower border of the injection site"},
      {"measurement": "sensation on injection", "setting": "skin keratosis lesion; 30-gauge needle", "result": "mild burning sensation"},
      {"measurement": "solubilization by hypochlorite alone", "setting": "[4]", "result": "minimal solubilization of the surrounding fatty tissue of the vessel"},
      {"measurement": "change of plaque with hypochlorite alone", "setting": "[5]", "result": "no significant changes occurred to the plaque"}
    ]},
    {"smiles": "CC(C)(C)OO", "note": "[tert-butyl hydroperoxide]", "values": [
      {"measurement": "formation of singlet oxygen on reaction with hypochlorite", "setting": "[6]", "result": "little formation of singlet oxygen"}
    ]}
  ]
}
